Measured values as given in patent US20140018384A1, “QUINOLINONE DERIVATIVES FOR USE IN THE TREATMENT OF AN AUTOIMMUNE DISEASE AND/OR AN INFLAMMATORY DISEASE” (PRONOXIS AB, priority 2011, published 2014).
Like-named read-outs stand apart in the source and are kept apart here.

Test system: PLB-985 cells
Assay: ROS production (isoluminol/HRP luminescence) in PLB-985 cells, Biological Example 1
Format: cell-based
Experimental: To cells (HL-60 or PLB-985) in HBSS medium was added compound (25 or 50 μM), isoluminol and Horse Radish Peroxidase, fraction II. Luminescence was measured for 10-30 minutes and the area under the […] curve was divided by that from a control experiment to give the activity expressed as fold change.
Each assay indicated below was performed at a different site, at a different time, by different personnel and/or using different cell lines, concentrations and controls. The cell line, concentration of example compound and control used in respect of each assay were as indicated below. The values obtained from these different setups (each using an otherwise identical assay) are given as Activity A, B, C, D or E in Table 5 below. The values are expressed as fold increase of NADPH activity in the presence of the relevant of compound (as indicated below) compared to the relevant control (as indicated below).
Activity A: HL-60 cells; 50 μM compound vs. blank Activity B: PLB-985 cells; 25 μM compound vs. blank Activity C, D and E: PLB-985 cells; 25 μM compound vs. DMSO

[1] = 25 μM compound vs. DMSO, setup C, read-out: Activity C (fold increase of NADPH activity compared to control)
[2] = 25 μM compound vs. DMSO, setup E, read-out: Activity E (fold increase of NADPH activity compared to control)
[3] = 25 μM compound vs. DMSO, setup D, read-out: Activity D (fold increase of NADPH activity compared to control)
[4] = 25 μM compound vs. blank, read-out: Activity B (fold increase of NADPH activity compared to control)

Question: COc1ccc(NC(=O)Cn2cc(C(=O)c3ccc(F)cc3)c(=O)c3cc4c(cc32)OCO4)cc1OC [Example 31, N-(3,4-Dimethoxyphenyl)-2-[3-(4-fluorobenzoyl)-6,7-methylenedioxy-4-oxo-1-quinolinyl]acetamide] was tested. Which fold induction at 25 µM [1] did it give?
Answer: 49.5

Question: How did the fold induction at 25 µM [2] turn out when COc1cc2c(=O)c(C(=O)c3ccc4ccccc4c3)cn(CC(=O)Nc3ccc(Cl)cc3)c2cn1 [Example 24, N-(4-Chlorophenyl)-2-[6-methoxy-3-(2-naphthoyl)-4-oxo-(1,7-naphthyridin-1-yl)]-acetamide] was run?
Answer: 1.7

Question: COc1ccc(NC(=O)Cn2cc(C(=O)c3ccc(F)cc3)c(=O)c3cc(OC)c(OC)cc32)cc1 [Example 105, N-p-Anisyl-2-[6,7-dimethoxy-3-(4-fluorobenzoyl)-4-oxo-1-quinolinyl]acetamide] was tested. Which fold induction at 25 µM [3] did it give?
Answer: 2

Question: For O=C(Cn1cc(C(=O)c2cccc(F)c2)c(=O)c2cc3c(cc21)OCO3)Nc1ccc(Cl)cc1 [Example 32, N-(4-Chlorophenyl)-2-[3-(3-fluorobenzoyl)-6,7-methylenedioxy-4-oxo-1-quinolinyl]acetamide], which fold induction at 25 µM [1] is on record?
Answer: 47.8

Question: COc1ccc(C(=O)c2cn(CC(=O)Nc3cccc(OC)c3)c3cc4c(cc3c2=O)OCO4)cc1 [Example 77] was tested. Which fold induction at 25 µM [1] did it give?
Answer: 2.8

Question: With Cc1ccc(C(=O)c2cn(CC(=O)Nc3ccc4c(c3)OCCO4)c3cc4c(cc3c2=O)OCO4)cc1C [Example 74, 2-[3-(3,4-Dimethylbenzoyl)-6,7-methylenedioxy-4-oxo-1-quinolinyl]-N-(3,4-ethylenedioxyphenyl)-acetamide] as the compound, how does the fold induction at 25 µM [1] read?
Answer: 20.1

Question: What about the fold induction at 25 µM [4] of the same compound?
Answer: 38

Question: How did the fold induction at 25 µM [1] turn out when O=C(Cn1cc(S(=O)(=O)c2ccc(F)cc2)c(=O)c2cc3c(cc21)OCO3)Nc1ccc(F)cc1 [Example 83, 2-[3-(4-Fluorobenzenesulfonyl)-6,7-methylenedioxy-4-oxo-1-quinolinyl]-N-(4-fluorophenyl)acetamide] was run?
Answer: 2

Question: How did the fold induction at 25 µM [1] turn out when COc1ccc(NC(=O)Cn2cc(C(=O)c3ccc(C)cc3)c(=O)c3cc4c(cc32)OCO4)cc1 [Example 46, N-p-Anisyl-2-(6,7-methylenedioxy-4-oxo-3-p-toluoyl-1-quinolinyl)acetamide] was run?
Answer: 40.7

Question: What about the fold induction at 25 µM [4] of the same compound?
Answer: 127

Question: Which results are given for COc1cccc(NC(=O)Cn2cc(C(=O)c3ccccc3)c(=O)c3cc4c(cc32)OCO4)c1 [Example 68, N-(m-Anisyl)-2-(3-benzoyl-6,7-methylenedioxy-4-oxo-1-quinolinyl)acetamide]?
Answer: fold induction at 25 µM [1]: 6.7; fold induction at 25 µM [4]: 10.1

Question: Which fold induction at 25 µM [2] does the source give for CCCc1ccc(NC(=O)Cn2cc(C(=O)c3ccc4ccccc4c3)c(=O)c3cc4c(cc32)OCO4)cc1 [Example 9, 2-[6,7-Methylenedioxy-3-(2-naphthoyl)-4-oxo-1-quinolinyl]-N-(4-propylphenyl)acetamide] here?
Answer: 2

Question: Which results are given for Cc1ccc(C(=O)c2cn(CC(=O)Nc3ccc(Cl)cc3)c3cc4c(cc3c2=O)OCO4)cc1 [Example 49, N-(4-Chlorophenyl)-2-(3-p-toluoyl-6,7-methylenedioxy-4-oxo-1-quinolinyl)acetamide]?
Answer: fold induction at 25 µM [1]: 56.4; fold induction at 25 µM [4]: 152

Question: How did the fold induction at 25 µM [1] turn out when COc1ccc(NC(=O)Cn2cc(C(=O)c3ccc(F)cc3)c(=O)c3cc4c(cc32)OCO4)cc1 [Example 54, N-p-Anisyl-2-[(4-fluorobenzoyl)-6,7-methylenedioxy-4-oxo-1-quinolinyl]acetamide] was run?
Answer: 61.5

Question: And the fold induction at 25 µM [3]?
Answer: 13.5

Question: What about the fold induction at 25 µM [4] of the same compound?
Answer: 74.2

Question: For COc1cccc(NC(=O)Cn2cc(C(=O)c3ccc4ccccc4c3)c(=O)c3cc4c(cc32)OCO4)c1 [Example 3, N-m-Anisyl-2-[6,7-methylenedioxy-3-(2-naphthoyl)-4-oxo-1-quinolinyl]acetamide], which fold induction at 25 µM [2] is on record?
Answer: 1.8

Question: With CCOc1ccc2c(c1)c(=O)c(C(=O)c1ccc(F)cc1)cn2CC(=O)Nc1ccc(OC)cc1 [Example 102, N-p-Anisyl-2-[6-ethoxy-3-(4-fluorobenzoyl)-4-oxo-1-quinolinyl]acetamide] as the compound, how does the fold induction at 25 µM [3] read?
Answer: 2.1

Question: Which results are given for CCOc1ccc(C(=O)c2cn(CC(=O)Nc3ccc(OC)cc3OC)c3cc4c(cc3c2=O)OCO4)cc1 [Example 65, N-(2,4-Dimethoxyphenyl)-2-[3-(4-ethoxybenzoyl)-6,7-methylenedioxy-4-oxo-1-quinolinyl]acetamide]?
Answer: fold induction at 25 µM [1]: 2.8; fold induction at 25 µM [4]: 4.1

Question: With O=C(Cn1cc(C(=O)c2ccc(F)cc2)c(=O)c2cc3c(cc21)OCO3)Nc1ccc2c(c1)OCCO2 [Example 81, N-(3,4-Ethylenedioxyphenyl)-2-[3-(4-fluorobenzoyl)-6,7-methylenedioxy-4-oxo-1-quinolinyl]acetamide] as the compound, how does the fold induction at 25 µM [1] read?
Answer: 22.6

Question: How did the fold induction at 25 µM [1] turn out when COc1ccc(C(=O)c2cn(CC(=O)Nc3ccc4c(c3)OCO4)c3cc4c(cc3c2=O)OCO4)cc1 [Example 59, 2-(3-p-Anisoyl-6,7-methylenedioxy-4-oxo-1-quinolinyl)-N-(3,4-methylenedioxyphenyl)acetamide] was run?
Answer: 13.4

Question: What about the fold induction at 25 µM [4] of the same compound?
Answer: 7.6

Question: For O=C(Cn1cc(C(=O)c2ccc3ccccc3c2)c(=O)c2cc3c(cc21)OCO3)Nc1cccc(Cl)c1 [Example 4, N-(3-chlorophenyl)-2-[6,7-methylenedioxy-3-(2-naphthoyl)-4-oxo-1-quinolinyl]acetamide], which fold induction at 25 µM [2] is on record?
Answer: 3.4

Question: Which fold induction at 25 µM [1] does the source give for COc1ccc(NC(=O)Cn2cc(S(=O)(=O)c3ccc(Cl)cc3)c(=O)c3cc4c(cc32)OCO4)cc1 [Example 45, N-p-Anisyl-2-[3-(4-chlorobenzenesulfonyl)-6,7-methylenedioxy-4-oxo-1-quinolinyl]acetamide] here?
Answer: 10.7

Question: For Cc1ccc(C(=O)c2cn(CC(=O)Nc3ccc(N(C)C)cc3)c3cc4c(cc3c2=O)OCO4)cc1C [Example 35], which fold induction at 25 µM [1] is on record?
Answer: 6.3

Question: With O=C(Cn1cc(C(=O)c2ccccc2)c(=O)c2cc3c(cc21)OCO3)Nc1ccc(F)cc1 [Example 63, 2-(3-Benzoyl-6,7-methylenedioxy-4-oxo-1-quinolinyl)-N-(4-fluorophenyl)acetamide] as the compound, how does the fold induction at 25 µM [1] read?
Answer: 24.3

Question: And the fold induction at 25 µM [4]?
Answer: 37.3

Question: With COc1ccc(NC(=O)Cn2cc(C(=O)c3ccco3)c(=O)c3cc4c(cc32)OCO4)cc1 [Example 26, N-p-Anisyl-2-[3-(2-furoyl)-6,7-methylenedioxy-4-oxo-1-quinolinyl]acetamide] as the compound, how does the fold induction at 25 µM [1] read?
Answer: 14.9

Question: With COc1ccc(NC(=O)Cn2cc(C(=O)c3ccc(F)cc3)c(=O)c3cc(Cl)ccc32)cc1 [Example 109, N-p-Anisyl-2-[6-chloro-3-(4-fluorobenzoyl)-4-oxo-1-quinolinyl]acetamide] as the compound, how does the fold induction at 25 µM [3] read?
Answer: 2.5

Question: With CCc1ccc(C(=O)c2cn(CC(=O)Nc3ccc4c(c3)OCO4)c3cc4c(cc3c2=O)OCO4)cc1 [Example 78, 2-[3-(4-Ethylbenzoyl)-6,7-methylenedioxy-4-oxo-1-quinolinyl]-N-(3,4-methylenedioxyphenyl)acetamide] as the compound, how does the fold induction at 25 µM [1] read?
Answer: 11.6

Question: For COc1cccc(NC(=O)Cn2cc(C(=O)c3ccc(Cl)cc3)c(=O)c3cc4c(cc32)OCO4)c1 [Example 69, N-(m-Anisyl)-2-[3-(4-chlorobenzoyl)-6,7-methylenedioxy-4-oxo-1-quinolinyl]acetamide], which fold induction at 25 µM [1] is on record?
Answer: 4

Question: And the fold induction at 25 µM [4]?
Answer: 4.6

Question: O=C(Cn1cc(C(=O)c2ccc3ccccc3c2)c(=O)c2cc3c(cc21)OCO3)Nc1ccc(Cl)c(Cl)c1 [Example 7, N-(3,4-Dichlorophenyl)-2-[6,7-methylenedioxy-3-(2-naphthoyl)-4-oxo-1-quinolinyl]acetamide] was tested. Which fold induction at 25 µM [2] did it give?
Answer: 2.2

Question: Which fold induction at 25 µM [2] does the source give for O=C(Cn1cc(C(=O)c2ccc3ccccc3c2)c(=O)c2cc3c(cc21)OCO3)Nc1cccc(OC(F)(F)F)c1 [Example 8, 2-[6,7-Methylenedioxy-3-(2-naphthoyI)-4-oxo-1-quinolinyl]-N-(3-trifluoromethoxyphenyl)acetamide] here?
Answer: 1.3

Question: O=C(Cn1cc(C(=O)c2ccc(F)cc2)c(=O)c2cc3c(cc21)OCO3)Nc1ccc(Cl)cn1 [Example 33, N-(5-Chloro-2-pyridyl)-2-[3-(4-fluorobenzoyl)-6,7-methylenedioxy-4-oxo-1-quinolinyl]acetamide] was tested. Which fold induction at 25 µM [1] did it give?
Answer: 45.6

Question: With COc1ccc(NC(=O)Cn2cc(C(=O)c3ccccc3)c(=O)c3cc4c(cc32)OCO4)cc1 [Example 87, N-p-Anisyl-2-(3-benzoyl-6,7-methylenedioxy-4-oxo-1-quinolinyl)acetamide] as the compound, how does the fold induction at 25 µM [1] read?
Answer: 27.2

Question: What does the source list for CCc1ccc(C(=O)c2cn(CC(=O)Nc3ccc(OC)c(OC)c3)c3cc4c(cc3c2=O)OCO4)cc1 [Example 52, N-(3,4-Dimethoxyphenyl)-2-[3-(4-ethylbenzoyl)-6,7-methylenedioxy-4-oxo-1-quinolinyl]acetamide]?
Answer: fold induction at 25 µM [1]: 55.6; fold induction at 25 µM [4]: 154

Question: For COc1ccc(C(=O)c2cn(CC(=O)Nc3ccc(Cl)cc3)c3cc4c(cc3c2=O)OCO4)cc1 [Example 29, 2-[3-p-Anisoyl-6,7-methylenedioxy-4-oxo-1-quinolinyl]-N-(4-chlorophenyl)acetamide], which fold induction at 25 µM [1] is on record?
Answer: 55

Question: Which fold induction at 25 µM [1] does the source give for CCc1ccc(NC(=O)Cn2cc(S(=O)(=O)c3ccccc3)c(=O)c3cc4c(cc32)OCO4)cc1 [Example 82, 2-(3-Benzenesulfonyl-6,7-methylenedioxy-4-oxo-1-quinolinyl)-N-(4-ethylphenyl)acetamide] here?
Answer: 5.9

Question: With COc1cc(OC)c2c(=O)c(C(=O)c3ccc(F)cc3)cn(CC(=O)Nc3ccc(Cl)cc3)c2c1 [Example 44] as the compound, how does the fold induction at 25 µM [2] read?
Answer: 78.1
